Test results taken from the NIST ThermoML archive (doi:10.1021/acs.jced.8b01048).
Numbers after ± are expanded uncertainties.

Assay: xn = mol fraction of the nth substance listed
Conditions: 100 kPa, Liquid, Vibrating tube method

CC(=O)[O-].CCn1cc[n+](C)c1 [1-ethyl-3-methylimidazolium acetate] + C[S+](C)[O-]
mass density [kg/m3]
Conditions	293.15 K	303.15 K	313.15 K	323.15 K	333.15 K	343.15 K	353.15 K	363.15 K	373.15 K
x2 = 0	1101.7 ± 0.5	1095.6 ± 0.5	1089.6 ± 0.5	1083.7 ± 0.5	1077.7 ± 0.5	1071.8 ± 0.5	1065.9 ± 0.5	1060 ± 0.5	1054.2 ± 0.5
x2 = 0.053	1102.4 ± 0.5	1096.3 ± 0.5	1090.3 ± 0.5	1084.2 ± 0.5	1078.1 ± 0.5	1072 ± 0.5	1066.1 ± 0.5	1060.1 ± 0.5	1054.1 ± 0.5
x2 = 0.103	1103 ± 0.5	1096.9 ± 0.5	1090.8 ± 0.5	1084.5 ± 0.5	1078.3 ± 0.5	1072.2 ± 0.5	1066.1 ± 0.5	1060 ± 0.5	1054 ± 0.5
x2 = 0.196	1103.8 ± 0.5	1097.5 ± 0.5	1091.2 ± 0.5	1084.8 ± 0.5	1078.4 ± 0.5	1072.2 ± 0.5	1065.9 ± 0.5	1059.8 ± 0.5	1053.6 ± 0.5
x2 = 0.301	1104.9 ± 0.5	1098.4 ± 0.5	1091.8 ± 0.5	1085.2 ± 0.5	1078.7 ± 0.5	1072.1 ± 0.5	1065.6 ± 0.5	1059.3 ± 0.5	1052.9 ± 0.5
x2 = 0.401	1105.8 ± 0.5	1099 ± 0.5	1092.2 ± 0.5	1085.3 ± 0.5	1078.7 ± 0.5	1071.8 ± 0.5	1065.2 ± 0.5	1058.4 ± 0.5	1051.8 ± 0.5
x2 = 0.501	1106.6 ± 0.5	1099.5 ± 0.5	1092.4 ± 0.5	1085.4 ± 0.5	1078.3 ± 0.5	1071.3 ± 0.5	1064.4 ± 0.5	1057.5 ± 0.5	1050.6 ± 0.5
x2 = 0.6	1107.4 ± 0.5	1099.9 ± 0.5	1092.5 ± 0.5	1085.1 ± 0.5	1077.8 ± 0.5	1070.4 ± 0.5	1063.1 ± 0.5	1055.8 ± 0.5	1048.5 ± 0.5
x2 = 0.686	1107.6 ± 0.5	1099.9 ± 0.5	1092 ± 0.5	1084.3 ± 0.5	1076.6 ± 0.5	1068.9 ± 0.5	1061.2 ± 0.5	1053.6 ± 0.5	1046 ± 0.5
x2 = 0.802	1107.2 ± 0.5	1098.8 ± 0.5	1090.4 ± 0.5	1082 ± 0.5	1073.7 ± 0.5	1065.4 ± 0.5	1057.1 ± 0.5	1048.8 ± 0.5	1040.4 ± 0.5
x2 = 0.899	1105.4 ± 0.5	1096.3 ± 0.5	1087.3 ± 0.5	1078.3 ± 0.5	1069.3 ± 0.5	1060.3 ± 0.5	1051.3 ± 0.5	1042.3 ± 0.5	1033.2 ± 0.5
